Among the data in patent US9512107B2, “Therapeutically active compositions and their methods of use” (Agios Pharmaceuticals, Inc., priority 2012, dated 2016) are IC50 values, retold here.

In one test the target is T1, IDH2 R172K (Homo sapiens, UniProt P48735, R172K).
T1 sequence (P48735 40-452 R172K): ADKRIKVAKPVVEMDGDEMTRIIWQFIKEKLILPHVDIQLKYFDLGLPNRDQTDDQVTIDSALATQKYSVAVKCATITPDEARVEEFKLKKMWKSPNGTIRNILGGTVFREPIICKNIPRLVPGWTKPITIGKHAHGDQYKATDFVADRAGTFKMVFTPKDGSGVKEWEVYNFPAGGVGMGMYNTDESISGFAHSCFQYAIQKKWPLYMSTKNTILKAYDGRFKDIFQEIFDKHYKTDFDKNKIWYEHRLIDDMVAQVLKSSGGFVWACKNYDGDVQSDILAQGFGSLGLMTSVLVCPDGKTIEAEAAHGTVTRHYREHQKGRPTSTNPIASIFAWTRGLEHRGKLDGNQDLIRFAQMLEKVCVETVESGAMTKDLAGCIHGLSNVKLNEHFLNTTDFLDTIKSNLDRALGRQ
Briefly: IDH2 R172K enzymatic assay (NADPH cofactor depletion, diaphorase/resazurin readout). It is filed as biochemical. As to conditions: read-out: Enz R172K. In short, it runs like this: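 Test compounds are incubated with the mutant enzyme for one hour at ambient temperature. A substrate mix of 50 μM NADPH plus 6.3 mM α-KG initiates turnover, which proceeds for one hour. Diaphorase and resazurin then halt the reaction by depleting the cofactor and convert the remaining NADPH into a fluorescent signal.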
On the technique in general: Alamar Blue is a resazurin reagent that responds to reducing activity.

The test system of test [1] is U87MG pLVX-IDH2 R140Q-neo cells. Nature of the test: U87MG pLVX-IDH2 R140Q-neo cell based assay, 2-HG in media by LC-MS at 48 hours. The conditions noted are these: Homo sapiens, U-87 MG. The essentials:
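U87MG cells stably expressing IDH2 R140Q were seeded overnight, then exposed to compound at 0.2% final DMSO at 37 °C, 5% CO2. 2-HG in the medium was quantified by LC-MS at 48 h. Growth inhibition was read by CellTiter-Glo luminescence at 72 h.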

For another test, the target named is T2, IDH2 R140Q (Homo sapiens, UniProt P48735, R140Q).
T2 sequence (P48735 40-452 R140Q): T1 sequence (P48735 40-452 R172K) with R101Q, K133R
Nature of the test: IDH2 R140Q enzymatic assay (cofactor depletion, similar format). It is filed as biochemical. As to conditions: read-out: Enz R140Q.

Numbering of substitutions follows the chain as printed.

For the compound `CC(C)Nc1nc(Nc2cncc(F)c2)nc(-c2cccc(N)n2)n1` [Compound 470, 6-(6-Amino-pyridin-2-yl)-N-(5-fluoro-pyridin-3-yl)-N′-isopropyl-[1,3,5]triazine-2,4-diamine], the IC50 was 100 to 1000 nM on IDH2 R172K, under 100 nM in test [1] and 100 to 1000 nM at IDH2 R140Q.

Turning to `CC(C)Nc1nc(Nc2cccc(S(C)(=O)=O)c2)nc(-c2cc(Cl)cc(Cl)n2)n1` [Compound 483, 6-(4,6-dichloropyridin-2-yl)-N2-isopropyl-N4-(3-(methylsulfonyl)phenyl)-1,3,5-triazine-2,4-diamine], the IC50 on IDH2 R172K was in the range of 1000 to 10000 nM; in test [1], 100 to 1000 nM; on IDH2 R140Q it was 100 to 1000 nM.

Turning to `CC(C)Nc1nc(Nc2ccccc2Cl)nc(-c2ccccc2)n1` [Compound 162], the IC50 lay within 1000 to 10000 nM at IDH2 R172K, 1000 to 10000 nM in test [1] and 100 to 1000 nM at IDH2 R140Q.

Consider `CC(C)Nc1nc(Nc2ccnc(F)c2)nc(-c2nccc(C(F)(F)F)n2)n1` [Compound 537, N-(2-Fluoro-pyridin-4-yl)-N′-isopropyl-6-(4-trifluoromethyl-pyrimidin-2-yl)-[1,3,5]triazine-2,4-diamine], for which the IC50 is under 100 nM on IDH2 R172K, under 100 nM in test [1] and 100 to 1000 nM at IDH2 R140Q.

On to `CCC(=O)c1cc(Nc2nc(NC(C)C)nc(-c3cccc(C(F)(F)F)n3)n2)ccn1` [Compound 574, 1-{4-[4-Isopropylamino-6-(6-trifluoromethyl-pyridin-2-yl)-[1,3,5]triazin-2-ylamino]-pyridin-2-yl}-propan-1-one], for which the IC50 on IDH2 R172K is under 100 nM; in test [1], under 100 nM; at IDH2 R140Q it was 100 to 1000 nM.

In the case of `CC(C)Nc1nc(Nc2cncc(C(F)(F)F)c2)nc(-c2cccc(C(F)(F)F)n2)n1` [Compound 386, N^2-isopropyl-6-(6-(trifluoromethyl)pyridin-2-yl)-N^4-(5-(trifluoromethyl)pyridin-3-yl)-1,3,5-triazine-2,4-diamine], the results for the IC50 (at IDH2 R172K; in test [1]; on IDH2 R140Q) were under 100 nM, under 100 nM and 100 to 1000 nM, respectively.

Turning to `CC(C)Nc1nc(Nc2cncc(C#N)c2)nc(-c2ccccc2)n1` [Compound 210, 5-(4-(isopropylamino)-6-phenyl-1,3,5-triazin-2-ylamino)nicotinonitrile], the IC50 on IDH2 R172K was 100 to 1000 nM; in test [1], under 100 nM; on IDH2 R140Q, under 100 nM.

With `CC(C)Nc1nc(Nc2cncc(C(F)(F)F)c2)nc(-c2nccc(C(F)(F)F)n2)n1` [Compound 536, N-Isopropyl-N′-(5-trifluoromethyl-pyridin-3-yl)-6-(4-trifluoromethyl-pyrimidin-2-yl)-[1,3,5]triazine-2,4-diamine], the IC50 at IDH2 R172K is 100 to 1000 nM; in test [1], under 100 nM; on IDH2 R140Q, 1000 to 10000 nM.

As to `COc1ncccc1-c1nc(Nc2ccnc(C(F)(F)F)c2)nc(NC(C)C)n1` [Compound 648, N2-isopropyl-6-(2-methoxypyridin-3-yl)-N4-(2-(trifluoromethyl)pyridin-4-yl)-1,3,5-triazine-2,4-diamine], the IC50 at IDH2 R172K is 100 to 1000 nM; in test [1] it was under 100 nM; on IDH2 R140Q, 100 to 1000 nM.

On to `CCNc1nc(Nc2ccncc2)nc(-c2ccccc2)n1` [Compound 248, N^2-ethyl-6-phenyl-N^4-(pyridin-4-yl)-1,3,5-triazine-2,4-diamine], for which the IC50 was 1000 to 10000 nM on IDH2 R172K, 100 to 1000 nM in test [1] and under 100 nM at IDH2 R140Q.

In the case of `CC(C)Nc1nc(Nc2cc(Cl)cc(S(C)(=O)=O)c2)nc(-c2cccc(C(F)(F)F)n2)n1` [Compound 561, N-(3-Chloro-5-methanesulfonyl-phenyl)-N′-isopropyl-6-(6-trifluoromethyl-pyridin-2-yl)-[1,3,5]triazine-2,4-diamine], the IC50 on IDH2 R172K is under 100 nM; in test [1], under 100 nM; on IDH2 R140Q it was 100 to 1000 nM.

Regarding `O=C(Cc1ccccc1)Nc1nc(Nc2ccccc2)nc(-c2ccccc2)n1` [Compound 172], the IC50 is 100 to 1000 nM at IDH2 R172K, 100 to 1000 nM in test [1] and under 100 nM on IDH2 R140Q.

For `CC(C)Nc1nc(Nc2ccccc2)nc(-c2cccc(S(C)(=O)=O)c2)n1` [Compound 151], the IC50 (on IDH2 R172K; in test [1]; on IDH2 R140Q) was 100 to 1000 nM in each case.

For the compound `CC(C)Nc1nc(Nc2ccnc(Cl)c2)nc(-c2cccc(C(F)(F)F)n2)n1` [Compound 572, N2-(2-chloropyridin-4-yl)-N4-isopropyl-6-(6-(trifluoromethyl)pyridin-2-yl)-1,3,5-triazine-2,4-diamine], the figures for the IC50 (at IDH2 R172K; in test [1]; on IDH2 R140Q) were 100 to 1000 nM, under 100 nM and 100 to 1000 nM, respectively.

Consider `FC(F)(F)CNc1nc(Nc2ccccc2)nc(-c2ccccc2)n1` [Compound 126], for which the IC50 at IDH2 R172K was 100 to 1000 nM; in test [1] it was under 100 nM; at IDH2 R140Q, under 100 nM.

Take `CC(C)Nc1nc(Nc2ccc(F)cc2)nc(-c2ccccc2)n1` [Compound 132]: the IC50 at IDH2 R172K was 100 to 1000 nM; in test [1] it was under 100 nM; at IDH2 R140Q, under 100 nM.

Take `CC(C)(O)CNc1nc(Nc2cc(F)cc(F)c2)nc(-c2cccc(C(C)(F)F)n2)n1` [Compound 560, 1-[4-[6-(1,1-Difluoro-ethyl)-pyridin-2-yl]-6-(3,5-difluoro-phenylamino)-[1,3,5]triazin-2-ylamino]-2-methyl-propan-2-ol]: the IC50 at IDH2 R172K is under 100 nM; in test [1], under 100 nM; at IDH2 R140Q, 100 to 1000 nM.

Regarding `CC(C)Nc1nc(Nc2ccccc2)nc(-c2ccnn2C)n1` [Compound 119], the IC50 on IDH2 R172K was over 10000 nM; in test [1], 1000 to 10000 nM; on IDH2 R140Q, 100 to 1000 nM.

In the case of `CC(C)Nc1nc(Nc2cc(F)cc(F)c2)nc(-c2nc(O)ccc2F)n1` [Compound 469, 6-[4-(3,5-Difluoro-phenylamino)-6-isopropylamino-[1,3,5]triazin-2-yl]-5-fluoro-pyridin-2-ol], the IC50 (at IDH2 R172K; in test [1]; on IDH2 R140Q) was under 100 nM throughout.

For `CCS(=O)(=O)c1cccc(Nc2nc(NC(C)C)nc(-c3ccccc3)n2)c1` [Compound 205, N^2-(3-(ethylsulfonyl)phenyl)-N^4-isopropyl-6-phenyl-1,3,5-triazine-2,4-diamine], the results for the IC50 (on IDH2 R172K; in test [1]; at IDH2 R140Q) were 100 to 1000 nM, under 100 nM and under 100 nM, respectively.

As for `CC(C)Nc1nc(Nc2ccnc(C(F)(F)F)c2)nc(-c2cc(O)cc(F)c2)n1` [Compound 658, 3-Fluoro-5-[4-isopropylamino-6-(2-trifluoromethyl-pyridin-4-ylamino)-[1,3,5]triazin-2-yl]-phenol], the IC50 at IDH2 R172K was under 100 nM; in test [1], under 100 nM; at IDH2 R140Q, 100 to 1000 nM.

Turning to `CC(C)Nc1nc(Nc2cccc(C(C)(C)O)c2)nc(-c2ccccc2)n1` [Compound 201, 2-(3-(4-(isopropylamino)-6-phenyl-1,3,5-triazin-2-ylamino)phenyl)propan-2-ol], the IC50 on IDH2 R172K was 1000 to 10000 nM; in test [1], 100 to 1000 nM; on IDH2 R140Q, under 100 nM.

For `CC(C)(C)CNc1nc(Nc2ccnc(C(F)(F)F)c2)nc(-c2nccc(C(F)(F)F)n2)n1` [Compound 523, N2-neopentyl-N4-(2-(trifluoromethyl)pyridin-4-yl)-6-(4-(trifluoromethyl)pyrimidin-2-yl)-1,3,5-triazine-2,4-diamine], the IC50 on IDH2 R172K was under 100 nM; in test [1], under 100 nM; at IDH2 R140Q, 100 to 1000 nM.

Take `CC(C)Nc1nc(Nc2cncc(F)c2)nc(-c2cccc(C(F)(F)F)n2)n1` [Compound 503, N-(5-Fluoro-pyridin-3-yl)-N′-isopropyl-6-(6-trifluoromethyl-pyridin-2-yl)-[1,3,5]triazine-2,4-diamine]: the results for the IC50 (on IDH2 R172K; in test [1]; at IDH2 R140Q) were under 100 nM, under 100 nM and 1000 to 10000 nM, respectively.

In the case of `CC(C)Nc1nc(Nc2ccccc2)nc(-c2ccn[nH]2)n1` [Compound 148], the IC50 fell in the range of 1000 to 10000 nM on IDH2 R172K, 100 to 1000 nM in test [1] and 100 to 1000 nM at IDH2 R140Q.

Regarding `CC(C)Nc1nc(Nc2ccnc(C(F)(F)F)c2)nc(-c2cccc([S+](C)[O-])c2)n1` (stereo not drawn) [Compound 653, N-Isopropyl-6-(3-methanesulfinyl-phenyl)-N′-(2-trifluoromethyl-pyridin-4-yl)-[1,3,5]triazine-2,4-diamine], the IC50 was 100 to 1000 nM on IDH2 R172K, under 100 nM in test [1] and 100 to 1000 nM at IDH2 R140Q.
